Experimental data: ChEMBL document CHEMBL5247590, “Novel nitrogen mustard-artemisinin hybrids with potent anti-leukemia action through DNA damage and activation of GPx” (Eur J Med Chem, 2022)
Activity calls are given as the source filed them. The calls are words filed in the database; no cut-off is given here.

Legend:
CCRF-CEM [1] = assay: Induction of cell cycle arrest in human CCRF-CEM cells assessed as cell accumulation at G1 phase at 0.5 uM incubated for 24 hrs by PI staining based flow cytometry analysis (reference value: 24.1 %); format: functional
[2] = Selectivity index, ratio of IC50 for human HL-60 cells to IC50 for human CCRF-CEM cells
CCRF-CEM [3] = assay: Induction of apoptosis in human CCRF-CEM cells assessed as late apoptotic cells at 0.25 uM incubated for 48 hrs by Annexin V-FITC/PI staining based flow cytometry (reference value: 3.2 %); format: functional
CCRF-CEM [4] = assay: Induction of apoptosis in human CCRF-CEM cells assessed as necrotic cells at 0.5 uM incubated for 48 hrs by Annexin V-FITC/PI staining based flow cytometry (reference value: 0.0 %); format: functional
SH-SY5Y = assay: Antiproliferative activity against human SH-SY5Y cells assessed as cell growth inhibition incubated for 72 hrs by MTT assay; format: functional, cell-based
CCRF-CEM [5] = assay: Induction of cell cycle arrest in human CCRF-CEM cells assessed as cell accumulation at S phase at 2 uM incubated for 24 hrs by PI staining based flow cytometry analysis (reference value: 15.5 %); format: functional
[6] = Selectivity index, ratio of IC50 for human K562 cells to IC50 for human CCRF-CEM cells
CCRF-CEM [7] = assay: Induction of apoptosis in human CCRF-CEM cells assessed as early apoptotic cells at 4 uM incubated for 48 hrs by Annexin V-FITC/PI staining based flow cytometry (reference value: 13.4 %); format: functional
CCRF-CEM [8] = assay: Inhibition of cell proliferation in human CCRF-CEM cells assessed as decrease in cell number upto 4 uM incubated for 12 hrs by cell counter analysis; format: functional, cell-based
CCRF-CEM [9] = assay: Induction of apoptosis in human CCRF-CEM cells assessed as viable cells at 0.25 uM incubated for 48 hrs by Annexin V-FITC/PI staining based flow cytometry (reference value: 83.4 %); format: functional; conditions: read-out: Activity
CCRF-CEM [10] = assay: Induction of apoptosis in human CCRF-CEM cells assessed as nuclear collapse upto 4 uM incubated for 48 hrs by Hoechst staining based fluorescent microscopic analysis; format: functional, cell-based
HCT-116 = assay: Antiproliferative activity against human HCT-116 cells assessed as cell growth inhibition incubated for 72 hrs by MTT assay; format: functional, cell-based; conditions: HCT-116, 72 h
[11] = Antiproliferative activity against human L02 cells assessed as cell growth inhibition incubated for 72 hrs by MTT assay; format: toxicity, cell-based
CCRF-CEM [12] = assay: Induction of apoptosis in human CCRF-CEM cells assessed as necrotic cells at 1 uM incubated for 48 hrs by Annexin V-FITC/PI staining based flow cytometry (reference value: 0.0 %); format: functional
CCRF-CEM [13] = assay: Induction of apoptosis in human CCRF-CEM cells assessed as necrotic cells at 0.25 uM incubated for 48 hrs by Annexin V-FITC/PI staining based flow cytometry (reference value: 0.0 %); format: functional
CCRF-CEM [14] = assay: Induction of apoptosis in human CCRF-CEM cells assessed as early apoptotic cells at 0.5 uM incubated for 48 hrs by Annexin V-FITC/PI staining based flow cytometry (reference value: 13.4 %); format: functional
CCRF-CEM [15] = assay: Downregulation of ROS level in human CCRF-CEM cells assessed as increase in GPx activity at 0.125 to 2 uM incubated for 12 hrs in presence of NADPH by […]; format: functional, cell-based; conditions: dose 0.125-2 µM
CCRF-CEM [16] = assay: Induction of cell cycle arrest in human CCRF-CEM cells assessed as cell accumulation at G2/M phase at 2 uM incubated for 24 hrs by PI staining based flow cytometry analysis (reference value: 61.3 %); format: functional
CCRF-CEM [17] = assay: Induction of cell cycle arrest in human CCRF-CEM cells assessed as cell accumulation at G2/M phase at 0.25 uM incubated for 24 hrs by PI staining based flow cytometry analysis (reference value: 61.3 %); format: functional
CCRF-CEM [18] = assay: Induction of apoptosis in human CCRF-CEM cells assessed as early apoptotic cells at 0.25 uM incubated for 48 hrs by Annexin V-FITC/PI staining based flow cytometry (reference value: 13.4 %); format: functional
U-118-MG = assay: Antiproliferative activity against human U-118-MG cells assessed as cell growth inhibition incubated for 72 hrs by MTT assay; format: functional, cell-based
CCRF-CEM [19] = assay: Induction of apoptosis in human CCRF-CEM cells assessed effect on cleaved caspase-3 expression at 0.25 to 0.5 uM incubated for 48 hrs by Western blot analysis; format: functional, cell-based; conditions: dose 0.25-0.5 µM
CCRF-CEM [20] = assay: Induction of apoptosis in human CCRF-CEM cells assessed as viable cells at 4 uM incubated for 48 hrs by Annexin V-FITC/PI staining based flow cytometry (reference value: 83.4 %); format: functional; conditions: read-out: Activity
CCRF-CEM [21] = assay: Induction of apoptosis in human CCRF-CEM cells assessed downregulation of Bcl-2 expression at 0.25 to 0.5 uM incubated for 48 hrs by Western blot analysis; format: functional, cell-based; conditions: dose 0.25-0.5 µM
CCRF-CEM [22] = assay: Induction of apoptosis in human CCRF-CEM cells assessed as nuclear condensation upto 4 uM incubated for 48 hrs by Hoechst staining based fluorescent microscopic analysis; format: functional, cell-based
CCRF-CEM [23] = assay: Induction of apoptosis in human CCRF-CEM cells assessed as viable cells at 1 uM incubated for 48 hrs by Annexin V-FITC/PI staining based flow cytometry (reference value: 83.4 %); format: functional; conditions: read-out: Activity
[24] = Selectivity index, ratio of IC50 for human L02 cells to IC50 for human CCRF-CEM cells; format: toxicity; conditions: L02 cells and CCRF-CEM cells, read-out: Selectivity Index

## C[C@@H]1CC[C@H]2[C@@H](C)C(OC(=O)c3ccc(N(CCCl)CCCl)cc3)O[C@@H]3O[C@@]4(C)CC[C@@H]1[C@]32OO4 (some centres not stated)
CCRF-CEM [1]
  Activity: 22.8%
[2]
  Selectivity Index: 17.2
CCRF-CEM [3]
  Activity: 11.7%
CCRF-CEM [4]
  Activity: 0.1%
SH-SY5Y
  IC50: > 40 µM
CCRF-CEM [5]
  Activity: 6.5%
[6]
  Selectivity Index: 1.82
CCRF-CEM [7]
  Activity: 37.3%
CCRF-CEM [8]
  inhibition: Active
CCRF-CEM [9]
  viability at 0.25 µM: 67.7%
CCRF-CEM [10]
  Activity: Active
HCT-116
  IC50: 3.1 µM
[11]
  IC50 at 72 h: > 40 µM
CCRF-CEM [12]
  Activity: 0.1%
CCRF-CEM [13]
  Activity: 0.1%
CCRF-CEM [14]
  Activity: 78.6%
CCRF-CEM [15]
  Activity: Active
CCRF-CEM [16]
  Activity: 67.1%
CCRF-CEM [17]
  Activity: 65.9%
CCRF-CEM [18]
  Activity: 20.5%
U-118-MG
  IC50: > 40 µM
CCRF-CEM [19]
  AC30: inactive
CCRF-CEM [20]
  viability at 4 µM: 47.8%
CCRF-CEM [21]
  Activity: Active
CCRF-CEM [22]
  Activity: Active
CCRF-CEM [23]
  viability at 1 µM: 60.4%
[24]
  selectivity ratio: 44.7
